US20260248787A9, “MEDICAMENT FOR TREATING CANCER COMPRISING OPTICALLY ACTIVE AZABICYCLO RING DERIVATIVE” (Sumitomo Pharma Co., Ltd., priority 2023, published 2026)

Assay: Phase 1/2 first-in-human clinical study, safety evaluation (DLT, TEAE, SAE)

C=C1C[C@@H]2CC[C@H]1[C@@H](C(=O)N1CCC3(CC1)CN(c1ncncc1Oc1ccc(F)cc1C(=O)N(C(C)C)C(C)C)C3)N2 [the present compound, 5-fluoro-2-[(4-{7-[(1S,3S,4R)-5-methylidene-2-azabicyclo[2.2.2]octane-3-carbonyl]-2,7-diazaspiro[3.5]nonan-2-yl}pyrimidin-5-yl)oxy]-N,N-di(propan-2-yl)benzamide]
34 (7.0%) n (%): Non-hematological laboratory change regardless of causality: Hypokalemia (N=57, Any Grade)
10 (17.5%) n (%): Hematological TEAE regardless of causality: Leukocytosis (N=57, Any Grade) | Non-hematological TEAE regardless of causality: Diarrhoea (N=57, Any Grade) | Non-hematological TEAE regardless of causality: Epistaxis (N=57, Any Grade) | Non-hematological TEAE regardless of causality: Fatigue (N=57, Any Grade) | Non-hematological TEAE regardless of causality: Pneumonia (N=57, Any Grade) | Treatment related adverse event: Nausea (N=57, Any Grade)
7 (12.3%) n (%): Hematological TEAE regardless of causality: Neutrophil count decreased (N=57, Any Grade) | Non-hematological TEAE regardless of causality: Cough (N=57, Any Grade) | Non-hematological TEAE regardless of causality: Electrocardiogram QT prolonged (N=57, Any Grade) | Non-hematological TEAE regardless of causality: Hypotension (N=57, Any Grade) | Treatment related adverse event: Vomiting (N=57, Any Grade)
15 (26.3%) n (%): Non-hematological TEAE regardless of causality: Decreased appetite (N=57, Any Grade) | Non-hematological TEAE regardless of causality: Headache (N=57, Any Grade)
4 (40.0) n (%): TEAE: Infections and Infestations (Arm B N=10, ≥Grade 3) | TEAE: Metabolism and nutrition disorders (Arm B N=10, ≥Grade 3)
19 (33.3%) n (%): Non-hematological laboratory change regardless of causality: Hypophosphatemia (N=57, Any Grade)
9 (15.8%) n (%): Hematological TEAE regardless of causality: Anaemia (N=57, Any Grade) | Hematological TEAE regardless of causality: Platelet count decreased (N=57, Any Grade) | Non-hematological TEAE regardless of causality: Muscular weakness (N=57, Any Grade) | Non-hematological TEAE regardless of causality: Oedema peripheral (N=57, Any Grade) | Non-hematological TEAE regardless of causality: Pyrexia (N=57, Any Grade)
0 n (%): TEAE: Dyspnoea (Arm B N=10, ≥Grade 3) | TEAE: Epistaxis (Arm B N=10, ≥Grade 3) | TEAE: Fatigue (Arm B N=10, ≥Grade 3) | TEAE: Gastrointestinal disorders (Arm B N=10, ≥Grade 3) | TEAE: Headache (Arm B N=10, ≥Grade 3) | TEAE: Hemorrhoids (Arm B N=10, ≥Grade 3) | TEAE: Hypoalbuminaemia (Arm B N=10, ≥Grade 3) | TEAE: Hypomagnaesemia (Arm B N=10, ≥Grade 3) | TEAE: Hyponatraemia (Arm B N=10, ≥Grade 3) | TEAE: Nausea (Arm B N=10, ≥Grade 3) | TEAE: Nervous System Disorders (Arm B N=10, ≥Grade 3) | TEAE: Oedema peripheral (Arm B N=10, ≥Grade 3) | TEAE: Pain in extremity (Arm B N=10, ≥Grade 3) | TEAE: Platelet count decreased (Arm B N=10, ≥Grade 3) | TEAE: Pruritus (Arm B N=10, ≥Grade 3) | TEAE: Pyrexia (Arm B N=10, ≥Grade 3) | TEAE: Respiratory, thoracic and mediastinal disorders (Arm B N=10, ≥Grade 3) | TEAE: Skin and subcutaneous tissue disorders (Arm B N=10, ≥Grade 3) | TEAE: Stomatitis (Arm B N=10, ≥Grade 3) | TEAE: Vomiting (Arm B N=10, ≥Grade 3) | related TEAE: Decreased appetite (Arm B N=10, ≥Grade 3) | related TEAE: Differentiation syndrome (Arm B N=10, ≥Grade 3) | related TEAE: Gastrointestinal disorders (Arm B N=10, ≥Grade 3) | related TEAE: General disorders and administration site conditions (Arm B N=10, ≥Grade 3) | related TEAE: Headache (Arm B N=10, ≥Grade 3) | related TEAE: Hyperuricaemia (Arm B N=10, ≥Grade 3) | related TEAE: Increased appetite (Arm B N=10, ≥Grade 3) | related TEAE: Nausea (Arm B N=10, ≥Grade 3) | related TEAE: Neoplasms benign, malignant and unspecified (incl cysts and polyps) (Arm B N=10, ≥Grade 3) | related TEAE: Nervous system disorders (Arm B N=10, ≥Grade 3) | related TEAE: Thirst (Arm B N=10, ≥Grade 3) | related TEAE: Vomiting (Arm B N=10, ≥Grade 3)
1 (1.8%) n (%): Non-hematological TEAE regardless of causality: Arthralgia (N=57, Grade ≥3) | Non-hematological TEAE regardless of causality: Back pain (N=57, Grade ≥3)
12 (21.1%) n (%): Hematological TEAE regardless of causality: Febrile neutropenia (N=57, Any Grade) | Hematological TEAE regardless of causality: Febrile neutropenia (N=57, Grade ≥3)
23 (40.4%) n (%): Non-hematological TEAE regardless of causality: Nausea (N=57, Any Grade) | Non-hematological laboratory change regardless of causality: AST increase (N=57, Any Grade)
11 (19.3%) n (%): Non-hematological TEAE regardless of causality: Constipation (N=57, Any Grade) | Non-hematological TEAE regardless of causality: Sepsis (N=57, Any Grade) | Non-hematological TEAE regardless of causality: Stomatitis (N=57, Any Grade)
3 (30.0)*^3 n (%): TEAE: Hypokalaemia (Arm B N=10, ≥Grade 3 (not related to the present compound))
13 (22.8%) n (%): Non-hematological TEAE regardless of causality: Dyspnoea (N=57, Any Grade)
20 (35.1%) n (%): Non-hematological TEAE regardless of causality: Vomiting (N=57, Any Grade)
2 (20.0) n (%): TEAE: Disease progression (Arm B N=10, ≥Grade 3) | TEAE: General disorders and administration site disorders (Arm B N=10, ≥Grade 3) | TEAE: Pneumonia (Arm B N=10, ≥Grade 3) | TEAE: Sepsis (Arm B N=10, ≥Grade 3)
33 (57.9%) n (%): Non-hematological laboratory change regardless of causality: Hypocalcemia (N=57, Any Grade)
45 (7.9%) n (%): Non-hematological laboratory change regardless of causality: Hypertriglyceridemia (N=57, Any Grade)
4 (7.0%) n (%): Hematological TEAE regardless of causality: Leukocytosis (N=57, Grade ≥3)
26 (4.6%) n (%): Non-hematological laboratory change regardless of causality: Hypomagnesemia (N=57, Any Grade)
28 (49.1%) n (%): Non-hematological laboratory change regardless of causality: ALT increase (N=57, Any Grade)
32 (56.1%) n (%): Non-hematological laboratory change regardless of causality: Hyponatremia (N=57, Any Grade)
6 (10.5%) n (%): Non-hematological TEAE regardless of causality: Arthralgia (N=57, Any Grade) | Non-hematological TEAE regardless of causality: COVID-19 (N=57, Any Grade) | Non-hematological TEAE regardless of causality: Dysgeusia (N=57, Any Grade) | Non-hematological TEAE regardless of causality: Haemorrhage intracranial (N=57, Any Grade) | Non-hematological TEAE regardless of causality: Myalgia (N=57, Any Grade) | Hematological TEAE regardless of causality: Neutrophil count decreased (N=57, Grade ≥3)
8 (14.0%) n (%): Non-hematological TEAE regardless of causality: Back pain (N=57, Any Grade) | Non-hematological TEAE regardless of causality: Dizziness (N=57, Any Grade) | Non-hematological TEAE regardless of causality: Hypertension (N=57, Any Grade) | Non-hematological TEAE regardless of causality: Pain in extremity (N=57, Any Grade) | Hematological TEAE regardless of causality: Anaemia (N=57, Grade ≥3) | Hematological TEAE regardless of causality: Platelet count decreased (N=57, Grade ≥3)
1 (10.0) n (%): TEAE: Hypertriglyceridaemia (Arm B N=10, ≥Grade 3) | TEAE: Hypocalcaemia (Arm B N=10, ≥Grade 3) | TEAE: Investigations (Arm B N=10, ≥Grade 3) | TEAE: Musculoskeletal and connective tissue disorders (Arm B N=10, ≥Grade 3) | related TEAE: Aspartate aminotransferase increased (Arm B N=10, ≥Grade 3) | related TEAE: Blood and lymphatic system disorders (Arm B N=10, ≥Grade 3) | related TEAE: Hypertriglyceridaemia (Arm B N=10, ≥Grade 3) | related TEAE: Investigations (Arm B N=10, ≥Grade 3) | related TEAE: Leukocytosis (Arm B N=10, ≥Grade 3) | related TEAE: Metabolism and nutrition disorders (Arm B N=10, ≥Grade 3)
